Like-named read-outs stand apart in the source and are kept apart here.

These results are taken from patent publication US7718705B1, “Methods of using rapid-onset selective serotonin reuptake inhibitors for treating sexual dysfunction” (Eli Lilly and Company, priority 2000, dated 2010).

The subject of data set [1] is patients (premature ejaculation). As to conditions: fluoxetine continuous then prn dosing; cited from earlier work.
Data set [2] shares this test system. As to conditions: cited from earlier work.
For data set [3], the system named is patients suffering from premature ejaculation. To be noted: 26 patients, cited from earlier work.
The test system of data set [4] is potent men with premature ejaculation. To be noted: 37 men, 50 mg oral sertraline; cited from earlier work.
The subject of data set [5] is men presenting with premature ejaculation (PE) as defined in the DSM IV. Description: Global Satisfaction Question in the crossover evaluation of prn dapoxetine. The data set is classed as in vivo, human. The text has this:
The patient-perceived-benefit of prn dosing method with dapoxetine, or a pharmaceutically acceptable salt thereof, can be determined, for example, through administration of a global satisfaction question, such as:
“How would you complete the following statement?
The new bottle of medication that I received at my previous visit made my premature ejaculation problem:
Measures for “ejaculatory latency” and “number of thrusts prior to ejaculation” should be recorded as the average of the 4-6 events recorded in the event logs for that treatment period. Subjects who ejaculated prior to intromission should have a zero recorded for both “ejaculatory latency” and “number of thrusts prior to ejaculation.” “Measures for Subject and Partner satisfaction scores (global impression)” and “Subject and Partner ejaculatory (or sexual) quality-of-life questionnaire” for each treatment period should be based on the score collected at the visit immediately following each treatment period.
(§1) During a lead-in period (maximum of 4 weeks), patients were asked to record ejaculatory latency a minimum of 4 times. Latency is defined as the time span, as measured by the patient's partner via a stopwatch, from vaginal intromission to ejaculation. At the completion of the lead-in period, patients were randomized to treatment with either 20 mg or 40 mg dapoxetine or placebo. Study medication was to be ingested 1 to 3 hours prior to a planned intercourse event. The time study drug was taken and time of intercourse were recorded in an event log. Patients were instructed to attempt intercourse at least 4 times over the 4 week treatment period and were issued a sufficient supply of medication to complete 6 attempts at intercourse. The outcome of each attempt (success of intromission and EL) was recorded in the event log initialed by the patient and their partner. Patients returned to the study clinic for a follow-up visit after 4 to 6 attempts at intercourse were completed. At visits 4, 5, and 6 patients were asked to answer the Global Satisfaction Questions and to complete the PEQ.
The results of a final analysis of a randomized, double-blind, three way crossover evaluation of two prn doses of dapoxetine (20 mg and 40 mg) in the treatment of premature ejaculation are disclosed in the following tables. The final analyses of the data was conducted following completion of all 3 treatment periods.

Data set [6] can be described thus: Plasma concentration profile in volunteers (FIG. 1). Type of data set: in vivo, human. As to conditions: 20 volunteers, 40 mg dapoxetine at time zero of the 14th day of daily dosing.
The subject of data set [7] is men presenting with premature ejaculation (PE) as defined in the DSM IV. Put plainly: Ejaculatory latency (stopwatch, intromission to ejaculation) in randomized, double-blind, three way crossover evaluation of prn dapoxetine. The data set is classed as in vivo, human. As to conditions: for Percentage of patients achieving increases of at least one minute in EL: placebo 14%; for Increase of mean ejaculatory latency from baseline: placebo group 24 seconds. The method, then: The results of an interim analysis of a randomized, double-blind, three way crossover evaluation of two prn doses of dapoxetine (20 mg and 40 mg) in the treatment of premature ejaculation (hereinafter referred to as “PE”) are disclosed in tables 8a and 8b. Each patient is assigned to receive 4 to 6 administrations of each of the 3 study doses, in a random order, over 3 periods of not more than 4 weeks each. The interim analysis of the data was conducted following completion of the first treatment period.
The study comprised 155 men, aged 19 to 60, presenting with PE as defined in the DSM IV. All patients were involved in a stable monogamous sexual relationship of at least 6 months duration and reported a history of intravaginal ejaculatory latency (hereinafter referred to as “EL”) of less than 2 minutes in greater than half of their intercourse experiences. History of significant cardiovascular disease or psychiatric disorder, uncontrolled hypertension, erectile dysfunction, and substance abuse were criteria for exclusion.
as §1
Of the 155 patients randomized, 145 completed the treatment period. 54 patients were randomized to the placebo group, while 56 and 45 received 20 mg or 40 mg dapoxetine respectively. Although patients were randomly assigned to treatment sequences in blocks of 6, the imbalance in the number of patients randomized to each group was due to the random distribution of the 40 mg assignment to later allocations within the blocks. The intent-to-treat population was comprised of 143 patients, each of whom had baseline and follow-up data for analysis. Analysis of EL was conducted on the 138 patients who had latency data at baseline and at least one post-medication event. The percentage of patients with data sufficient for inclusion in the analysis of EL was lower in the 40 mg group than in either of the other 2 groups. This difference may be attributable to the smaller size of the 40 mg group, such that each patient represents a greater percentage of the whole, rather than being a function of the dose administered. […]

[8] abbreviates: patients with baseline less than one minute, 20 mg prn.
Where [9] appears, read: patients with baseline less than one minute, 40 mg prn.
Setting [10] is: patients with baseline less than two minutes, 20 mg prn.
Setting [11] is: patients with baseline less than two minutes, 40 mg prn.
[12] abbreviates: patients with baseline ≧ one minute, 40 mg prn.
Where [13] appears, read: patients with baseline ≧ two minutes, 40 mg prn.
[14] abbreviates: final analysis, all patients, 20 mg prn.
Setting [15] is: final analysis, all patients, 40 mg prn.

Consider `CNCCC(Oc1ccc(C(F)(F)F)cc1)c1ccccc1` (stereo not drawn) [fluoxetine], for which, in data set [1], the “Patients initially improved with continuous dosing that lost benefit after switching to prn dosing” value is 100%.
For `Fc1ccc([C@@H]2CCNC[C@H]2COc2ccc3c(c2)OCO3)cc1` [paroxetine], in data set [2] (20 mg prn paroxetine), the “Patients with improved ejaculatory latency” value is 42%. In data set [2] (paroxetine continuous then prn dosing), the “Patients initially improved with continuous dosing that lost benefit after switching to prn dosing” value is on record as 37%. Moreover, in data set [3] (prn 20 mg paroxetine tablet 3-4 hours prior to intercourse), the “Ejaculatory latency (in words)” value is “statistically significant increase in ejaculatory latency in the second through fourth weeks of paroxetine treatment but not in the first week”. For the same molecule, the “Frequency of intercourse (in words)” value in data set [3] (prn 20 mg paroxetine) was “significantly increased only after 3 weeks of prn paroxetine therapy”.
Regarding `CN[C@H]1CC[C@@H](c2ccc(Cl)c(Cl)c2)c2ccccc21` [sertraline], the “Conclusion on treatment of premature ejaculation (in words)” value in data set [4] is “appeared to be a useful and well tolerated oral treatment for premature ejaculation after 1 to 2 weeks”.
Consider `CN(C)[C@@H](CCOc1cccc2ccccc12)c1ccccc1` [Dapoxetine, (S)-(+)-N,N-Dimethyl-1-phenyl-3-(1-naphthalenyloxy)-propanamine], for which the “Global Satisfaction: Better/Much Better” value in data set [5] ("Moderate" patients, 20 mg prn) is recorded as 34.4%; in data set [5] ("Moderate" patients, 40 mg prn), 50%; in data set [5] ("Severe" patients, 20 mg prn), 17.2%; in data set [5] ("Severe" patients, 40 mg prn), 25.5%; in data set [5] (setting [8]), 13%; in data set [5] (setting [9]) it was 24%. The “Global Satisfaction: Better/Much Better” value in data set [5] (setting [10]) is 23%; in data set [5] (setting [11]) it was 29%; in data set [5] (setting [12]) it was 36.4%; in data set [5] (setting [13]), 39.1%. The “Global Satisfaction: ≧Slightly Better” value came out at 51.6% in data set [5] ("Moderate" patients, 20 mg prn); 66.7% in data set [5] ("Moderate" patients, 40 mg prn); 48.5% in data set [5] ("Severe" patients, 20 mg prn); 54.1% in data set [5] ("Severe" patients, 40 mg prn); 38% in data set [5] (setting [8]); 46% in data set [5] (setting [9]). Also, the “Global Satisfaction: ≧Slightly Better” value in data set [5] (setting [10]) was 50%; in data set [5] (setting [11]), 50%; in data set [5] (setting [12]), 65.0%; in data set [5] (setting [13]) it was 65.2%. For the same molecule, the “Plasma concentration profile (in words)” value in data set [6] is recorded as “rapid-onset to reach peak plasma concentration followed by rapid metabolism (i.e. short half-life)”. Further, the “Ejaculatory Latency (LS Mean)” value in data set [7] ("Moderate" patients, baseline 1.68, 20 mg prn) was 2.64 min; in data set [7] ("Moderate" patients, baseline 1.68, 40 mg prn), 2.93 min; in data set [7] ("Severe" patients, baseline 1.23, 20 mg prn) it was 2.60 min; in data set [7] ("Severe" patients, baseline 1.23, 40 mg prn), 3.09 min; in data set [7] (setting [14]), 2.78 min; in data set [7] (setting [15]), 3.19 min. In addition, the “Ejaculatory Latency (LS Mean)” value in data set [7] (final analysis, patients with baseline less than one minute, 20 mg prn) was 1.2 min; in data set [7] (final analysis, patients with baseline less than one minute, 40 mg prn), 1.7 min; in data set [7] (interim analysis, follow-up, 20 mg prn, adjusted for baseline and sample size), 2.41 min; in data set [7] (interim analysis, follow-up, 40 mg prn, adjusted for baseline and sample size), 2.52 min; in data set [7] (setting [10]) it was 2.4 min; in data set [7] (setting [11]), 2.5 min. Besides, the “Ejaculatory Latency (LS Mean)” value in data set [7] (patients with baseline ≧ one minute, baseline 1.90, 40 mg prn) was determined as 4.24 min; in data set [7] (patients with baseline ≧ two minutes, baseline 3.19, 40 mg prn), 6.59 min; in data set [7] (recorded after administration of a single dose, 20 mg), 2.37 ± 0.24 min; in data set [7] (recorded after administration of a single dose, 40 mg), 1.98 ± 0.27 min. Besides, the “Change in Latency (LS Mean)” value in data set [7] ("Moderate" patients, 20 mg prn) came to 0.94 min; in data set [7] ("Moderate" patients, 40 mg prn) it was 1.27 min; in data set [7] ("Severe" patients, 20 mg prn), 1.42 min; in data set [7] ("Severe" patients, 40 mg prn), 1.93 min; in data set [7] (setting [14]), 1.43 min; in data set [7] (setting [15]), 1.86 min. Further, the “Change in Latency (LS Mean)” value in data set [7] (setting [8]) was determined as 0.6 min; in data set [7] (setting [9]), 1.3 min; in data set [7] (setting [10]), 1.4 min; in data set [7] (setting [11]) it was 1.5 min; in data set [7] (setting [12]) it was 2.40 min; in data set [7] (setting [13]), 3.43 min. Further, the “Treatment of premature ejaculation with the first dose (in words)” value in data set [7] (first dose administered, no lead-in period (Table 12)) was “can effectively and unexpectedly treat premature ejaculation with the first dose administered to a patient”. For the same molecule, the “Ejaculatory latency, Mean ± S.D.” value came to 2.3 ± 2.26 min in data set [7] (interim analysis, follow-up, first treatment period, 20 mg prn, 50 patients); 2.3 ± 2.19 min in data set [7] (interim analysis, follow-up, first treatment period, 40 mg prn, 37 patients); 2.3 ± 2.22 min in data set [7] (interim analysis, follow-up, 20 & 40 mg combined, 87 patients). For the same molecule, the “Ejaculatory latency, Range” value in data set [7] (interim analysis, follow-up, 20 mg prn) lay within 0.1 to 11.4 min; in data set [7] (interim analysis, follow-up, 40 mg prn), 0.0 to 9.8 min; in data set [7] (interim analysis, follow-up, 20 & 40 mg combined), 0.0 to 11.4 min. The “Percentage of patients achieving increases of at least one minute in EL” value in data set [7] (interim analysis, 20 mg prn) is 22%; in data set [7] (interim analysis, 40 mg prn) it was 24%. Further, the “Increase of mean ejaculatory latency from baseline” value in data set [7] (interim analysis, 20 mg prn) is listed as “one”; in data set [7] (interim analysis, 40 mg prn), “one”.
